Legend:
[1] = test system: primary rat hepatocytes; experiment: Hepatocyte morphology / cell spreading (scanning electron micrographs); assay type: cell-based; details: 24 hours
Text: PKA inhibition also had surprising effects on cell morphology. It has been proposed that malleable substrates such as collagen gel are unable to promote cell spreading because it lacks sufficient mechanical strength to resist contractile forces applied by the cell to its adhesion sites.

[2] = test system: p42/44 ERKs; experiment: Phosphorylation of p42/44 ERKs by Western blot; assay type: cell-based, rat; details: hepatocytes on collagen gel for 50 hr, with H89
Description: (§1) FIG. 2. Effects of PKA inhibition on morphology and cell cycle progression on collagen gel. (A) PKA activity was assessed in hepatocytes cultured on gel or film. In vitro kinase assay was performed; DPM=total ^32P-incorporation, minus counts from sample without substrate. […] [^3H]Thymidine incorporation was assessed from 48-96 hr. (C) Phosphorylation of p42/44 ERKs was determined in hepatocytes cultured on collagen gel for 50 hr by Western blot using a phospho-specific p42/44 antibody (NEB). […] EGF receptor (EGFr) was immunoprecipitated, followed by Western blot analysis of phospho-tyrosine (P-Tyr) or total EGFr.
To determine if ERK activation occurs on both collagen substrates (film and gel), phosphorylation of ERKs was measured using Western blot analysis and antibodies against the phosphorylated form of ERK 1/2 (New England Biolabs). […] Once plated onto collagen film, ERK phosphorylation persisted and increased slightly over the first 2 hours in culture, then gradually diminished out to 24 hours. A second peak of phosphorylation was observed by 48 hours, just prior to entry into S phase. Both peaks of phosphorylation correlated with increased ERK kinase activity as determined by in vitro kinase assays. In contrast, the initial phosphorylation subsides more rapidly in cells on collagen gel and the second peak of ERK phosphorylation was absent. […]

[3] = test system: hepatocytes; experiment: Cell counts after pulsed PKA inhibition, Example 6 (hemocytometer, Coulter counter); assay type: cell-based, rat
Description: Coating: 60 mm plates were coated with film or 5× gel, as described above, with 4 replicates per condition. […] Culture: The cells were cultured as described above, changing media in all plates at 72 hrs, and again at 96 hrs (day 4). […] Harvest: Gel—media was removed from plates. Five mL collagenase (approx. 1 mg/ml) in PBS was added to plates and incubated for 20 minutes at 37° C. Three mL trypsin-EDTA was added directly to collagenase solution and incubated another 15 minutes at 37° C. Media was removed with a pipette and plate was washed several times with the media, before the media was collected into a 15 mL tube. Tubes were centrifuged at 1000 rpm for 10 minutes at 4° C. Supernatant was removed and pellets from each of the four replicates were resuspended in 1 mL fresh media. Tube was weighed for end volume and equalized to 1 ml later. Film—Media was removed from plates. Trypsin-EDTA was added to dishes (3 ml/dish) and dishes were incubated at 37° C. for 15 minutes. Procedure was repeated. Samples were snap frozen in ethanol at −70° C. before thawing and counting. Counting: Hemocytometer—100 μL sample was added to 900 μL trypan blue in PBS […]. Cells were counted. Repeated procedure seven times for eight total counts per sample. Coulter Counter—Added 250 μL sample to 20 mL PBS in small Coulter vessel. Counted with predetermined pre-sets, collecting 1 mL of 20 mL sample and recording result. Repeated procedure seven times for eight total counts per sample. It should be noted that the inventors also determined that a pulse of PKA inhibitor is preferable to a constant exposure to PKA. If the PKA inhibitor is left on for the entire culture period, there is no enhanced cell number, presumably due to the requirement of PKA in later stages of the cell cycle. Thus, the methodology differs slightly from our initial report in which we simply stated the inhibitor is added to the culture. In the present experiments, the inventors exposed the cells to the inhibitor on for the first 72 hours, removed it for the next 24 hours, and then added it back again.

[4] = test system: primary rat hepatocytes; experiment: Cell counting 96 hr after plating on collagen gel (hemocytometer); assay type: cell-based; details: H89 3 μM
Description: (§2) FIG. 4. Effects of PKA inhibition on hepatocyte proliferation and differentiation. […] Medium was replaced at 96 hr and collected for analysis at 120 hr. Albumin secretion was determined by ELISA.
While growth on collagen films was also high, hepatocytes quickly become de-differentiated on collagen films.
Proliferation: Hepatocytes cultured on 35 mm dishes will be removed from plates using a combination of trypsin, collagenase, and DNAse at various times after plating. Cells are counted using a Coulter counter and hemocytometer. A cell count at 24 hour is also determined to assess the initial number of viable, attached cells. Plates are run in triplicate.

[5] = test system: primary rat hepatocytes; experiment: DNA synthesis, [3H]thymidine incorporation in hepatocytes on collagen film or gel; assay type: cell-based
Description: as §1
Once it was confirmed that PKA activity was higher in cells cultured on gel, PKA activity was modified to assess its role in cell cycle progression.
DNA Synthesis: DNA synthesis will be measured using [^3H]-thymidine incorporation in substrate-coated 96-well plates, as previously described (Hansen 1999). DPMs will be normalized to cell number assessed in parallel plates using the CyQuant Assay (Molecular Probes).
Hepatocyte Culture: Cells are obtained by collagenase perfusion of adult Lewis rat liver (Aiken 1990), followed by purification through a Percoll gradient (Sigma, St. Louis, Mo.). Hepatocytes will be plated (12,000 cells/cm^2) in serum-free William's medium E with defined additives including EGF (10 ng/ml, Collaborative Research, Bedford, Mass.) and insulin (20 mU/ml, Sigma) (Hansen 1994).

[6] = test system: primary rat hepatocytes; experiment: Urea production in hepatocytes on collagen gel; assay type: cell-based; details: with PKA inhibition (FIG. 4C: with or without H89)
Description: as §2
(§3) Albumin is a protein synthesized and secreted by hepatocytes and this assay is routinely used as a marker of differentiated function. […] Urea production is also maintained on collagen gel in the presence of PKA inhibition (FIG. 4C).

[7] = test system: primary rat hepatocytes; experiment: Albumin secretion by ELISA (differentiated function); assay type: cell-based; details: collagen gel; text: after 48 hours in culture; H89 3 μM
Description: FIG. 4. Effects of PKA inhibition on hepatocyte proliferation and differentiation. […] Albumin secretion was determined by ELISA.
as §3

[8] = test system: hepatocytes; experiment: Dot blot of albumin secretion, 72 hour media samples; assay type: cell-based, rat
Description: FIG. 6. Dot blot of albumin secretion—72 hour media samples.
The observed enhanced cell number was accompanied by NO change in albumin secretion, which is a standard measure of differentiated function. […] It also compares it to a thin film of type I collagen on which hepatocytes may proliferate but also lose differentiated function. Inhibition of PKA has little effect on DNA synthesis, cell counts, or albumin secretion in hepatocytes cultured on film.

[9] = test system: protein kinase inhibitory peptide, PKI

Compound: Nc1ncnc2c1nc(Br)n2[C@@H]1O[C@@H]2COP(=O)(O)O[C@H]2[C@H]1O [8-Br-cAMP]
- cell spreading on collagen film ([1]; collagen film): significantly inhibits cell spreading

Compound: O=S(=O)(NCCNC/C=C/c1ccc(Br)cc1)c1cccc2cnccc12 [H89, N-[2-((p-bromocinnamyl)amino)ethyl]-5-isoquinolinesulfonamide]
- ERK phosphorylation [2]: significantly enhanced
- cell counts in hepatocytes cultured on film ([3]; collagen film): little effect
- higher cell number with PKA inhibition ([3]; type I collagen gel, eight days in culture, 3.3 μM H89 pulsed): 15-20%
- average increase in cell number, five experiments ([3]; type I collagen gel, eight days, 3.3 μM H89 pulsed, p-value=0.0004): 16%±3.3%
- cell number at four days ([3]; type I collagen gel, representative experiment (FIG. 5A)): no change in cell number
- increase in cell number compared to DMSO controls [4]: 67%
- cell spreading on collagen gel ([1]; collagen gel): significant spreading
- DNA synthesis on collagen gel ([5]; H89 2 μM vs DMSO, collagen gel, [3H]thymidine incorporation 48-96 hr): significantly increased
- DNA synthesis on collagen film ([5]; H89 2 μM vs DMSO, film-plated cells, 48-96 hr): little effect
- DNA synthesis in hepatocytes cultured on film ([5]; collagen film, Example 6 discussion): little effect
- urea production [6]: maintained
- albumin secretion compared to DMSO controls [7]: not reduced
- albumin secretion in hepatocytes cultured on film ([8]; collagen film): little effect
- albumin secretion (dot blot, not quantitated) ([8]; collagen gel cultures with or without H89, 72 hours): NO change

Compound: N#CC(=C(/N)Sc1ccccc1N)/C(C#N)=C(\N)Sc1ccccc1N [U0126]
- DNA synthesis, MEK1 inhibition during early G1 ([5]; inhibitor applied during early G1): does not
- DNA synthesis, MEK1 inhibition during late G1 ([5]; inhibitor applied during late G1): inhibits DNA synthesis

Compound: protein kinase A (PKA)
- [^32P] incorporation in the in vitro PKA kinase assay [9]: the protein kinase inhibitory peptide, PKI, specifically inhibits [^32P] incorporation

Source: patent publication US20050148073A1, “Induction of hepatocyte proliferation in vitro by inhibition of cell cycle inhibitors” (priority 2002, published 2005)
